The values that follow come from patent US5318971A, “3-Substituted-1-aryl-2(1H)-quinolones useful as anti-allergy and anti-inflammatory agents” (Schering Corporation, priority 1991, dated 1994).

Test [1] has as its system SRS-A (leukotriene) release, guinea pig lung. The test can be described thus: SRSA Release in vitro (leukotriene release from sensitized guinea pig lung fragments). The test is classed as cell-based. The settings on record: Cavia porcellus, ovalbumin challenge, read-out: SRSA Release in vitro % l. The method, then:
First, kill sensitized guinea pigs by a blow to the head, remove the lungs and clean them of visible connective tissue, trachea and large blood vessels. Slice the lungs from individual animals into fragments approximately 1 mm in thickness using a Mcllwain tissue chopper and wash them with oxygenated Tyrode's buffer. Transfer weighted allquots (approximately 400 mg wet weight) of lung into vials containing 2 ml of fresh Tyrode's solution (containing 10 mM cysteine) and incubate in the presence or absence of test compound for 12 minutes at 37° C., challenge the tissues with 20 μg ovalbumin/ml (final concentration) and incubate for 15 minutes.
To measure leukotriene release, extract an aliquot of supernatant fluid with 4 volumes of 100% ethanol. After removal of the precipitated protein, dry the clear fluid under a stream of N2 gas. Measure the leukotriene content by a radioimmunoassay using [^3 H]LTC4 (leukotriene C4) and antiserum obtained from New England Nuclear. Calculate percent inhibition of leukotriene release by comparing for each lung the release in the presence of the test compound to that in the absence of test compound.

Test [2] has as its system rat pleural cavity. Nature of the test: Reverse Passive Arthus Pleurisy Reaction (RPAPR), pleural exudate cells and fluid. Type of test: in vivo. The settings on record: po; for inhibition in vivo at 5 mg/kg: 5 mg/kg p.o.; for inhibition in vivo at 25 mg/kg: 25 mg/kg p.o.; for inhibition in vivo at 10 mg/kg: 10 mg/kg p.o. The method, then:
(§1) RPAPR was produced by a modification of the Yamamoto et al. method (Agents and Actions 5: 374-377, 1975). Thirty (30) minutes prior to lightly anesthesizing rats with ether and then sensitizing them by injecting the animals i.v. with 0.33 mg of bovine serum albumin (BSA) dissolved in 0.2 ml sterile saline, a test compound was administered per os (p.o.) as indicated in Table 1. Thirty minutes later, the rats were again lightly anesthetized and challenged intrapleurally with a rabbit anti-BSA antibody (Organon), containing 1.2 mg antibody protein, dissolved in 0.2 ml sterile saline. Four hours after challenge the rats were sacrificed by CO2 inhalation, their pleural cavities exposed and the exudate harvested. The total volumes of each exudate was recorded and the total number of leukocytes determined using a Coulter Counter ZM.

Test [3] concerns LTE4 (Leukotriene E4). Nature of the test: Reverse Passive Arthus Pleurisy Reaction (RPAPR), LTE4 in pleural exudate. The test is classed as in vivo. The following applies: rat, 25 mg/kg p.o.; radioimmunoassay of exudate. On the procedure: as §1
(§2) The exudate were then centrifuged and the supernatants decanted. Four volumes of cold 95% acetone was added for each volume of exudate. One half hour later the samples were again centrifuged for 10 minutes. Immediately after, 5 ml of the supernatant was removed and dried under nitrogen. These samples were kept in a freezer until LTE4 and TxB2 were determined using a radioimmune assay kit from Amersham.
LTE4 = Leukotriene E4 a measure of lipoxygenase (LO) derived
(§3) mediators of inflammation.

Test [4] has as its system TXB2 (Thromboxane B2). The test can be described thus: Reverse Passive Arthus Pleurisy Reaction (RPAPR), TxB2 in pleural exudate. The test is classed as in vivo. The settings on record: rat, 25 mg/kg p.o.; radioimmunoassay of exudate. On the procedure: as §1, §2
TXB2 = Thromboxane B2 a measure of cyclooxygenase (CO) derived
as §3

Test [5] deals with antigen-induced SRS-A mediated bronchoconstriction. Nature of the test: Guinea Pig Bronchospasm (anaphylactic bronchospasm in sensitized guinea pigs). Type of test: in vivo. The following applies: 5 mg/kg p.o., ovalbumin aerosol challenge. The method, then: The anti-allergy activity of the compounds of this invention is identified by tests which measure a compound's inhibition of anaphylactic bronchospasms in sensitized guinea pigs having antigen-induced SRS-A mediated bronchoconstriction. Allergic bronchospasms were measured in actively sensitized guinea pigs by a modification of the procedure of Konzett and Rossler, Arch. Expt. Pathol. Pharmakol., 194, pp. 71-74 (1940). Male Hartly guinea pigs were sensitized with 5 mg ovalbumin injected ip and 5 mg injected sc in 1 ml saline on day 1 and 5 mg ovalbumin injected ip on day 4. To measure anaphylactic bronchospasm, sensitized guinea pigs were fasted overnight and the following morning were anesthetized with 0.9 mL/kg ip dialurethane. The trachea and jugular vein were cannulated and the animals were ventilated by a Harvard rodent respirator. A side arm to the tracheal cannula was connected to a Harvard pressure transducer to obtain a continuous measure of intratracheal pressure. An increase in intratracheal pressure was taken as a measure of bronchoconstriction. Each guinea pig was injected i.v. with 1 mg/kg propranolol, 5 mg/kg indomethacin and 2 mg/kg mepyramine given together in a volume of 1 mL/kg. […] Bronchoconstriction was measured as the peak increase in intratracheal pressure occurring within 15 minutes after antigen challenge.

Setting [6] is: Leukocyte, leukocytes in exudate 4 h after challenge, read-out: % Inhibition Cells.
[7] abbreviates: exudate volume 4 h after challenge, read-out: % Inhibition Fluid.

Read-outs that look alike come from different tables or passages of the source. Some results are limits rather than exact numbers.

Consider `O=c1c(Cn2cncn2)cc2ccccc2n1-c1ccccc1` [Formula 2], for which the inhibition at 30 µM in test [1] was found to be 83%. Further, the inhibition in vivo at 5 mg/kg was 64% in test [2] (setting [6]) and 42% in test [2] (setting [7]).

Consider `O=c1c(Cn2cncn2)cc2ccccc2n1-c1cccc(Cl)c1` [Formula 56, (1-3-Chlorophenyl)-3-(1H-1,2,4-Triazol-1-ylmethyl)-2(1H)-Quinolone], for which the inhibition in vivo at 5 mg/kg was found to be 56% in test [2] (setting [6]) and 63% in test [2] (setting [7]).

For the molecule `CC(=O)NCc1cc2ccccc2n(-c2ccccc2)c1=O` [Formula 58], the inhibition in vivo at 25 mg/kg was found to be 62% in test [2] (setting [6]) and 53% in test [2] (setting [7]).

Consider `C[S+]([O-])Cc1cc2ccccc2n(Cc2ccccc2)c1=O` (stereo not shown) [Formula 51], for which the results for the inhibition in vivo at 25 mg/kg in test [2] (setting [6]) and in test [2] (setting [7]) were 22% and under 10%, respectively.

With `CCc1nccn1Cc1cc2ccccc2n(-c2ccccc2)c1=O` [Formula 50], the inhibition in vivo at 25 mg/kg in test [2] (setting [6]) and in test [2] (setting [7]) was under 10% in each case.

With `O=c1c(CCn2ccnc2)cc2ccccc2n1-c1ccccc1` [Formula 49], the inhibition in vivo at 25 mg/kg in test [2] (setting [6]) was determined as 86%; in test [2] (setting [7]) it was 53%.

`Cn1ccnc1SCc1cc2ccccc2n(-c2ccccc2)c1=O` [Formula 48, 1-Phenyl-3-(1-Methyl-1H-imidazol-2-ylthiomethyl)-2(1H)-quinolone]: the “% Inhibition LTE4” value in test [3] is on record as 57%. The “% Inhibition TXB2” value in test [4] came to 67%. The inhibition in vivo at 25 mg/kg was 75% in test [2] (setting [6]) and 40% in test [2] (setting [7]).

For the molecule `O=c1c(Cn2cccn2)cc2ccccc2n1-c1ccccc1` [Formula 57], the results for the inhibition in vivo at 25 mg/kg in test [2] (setting [6]) and in test [2] (setting [7]) were 20% and 19%, respectively.

On to `O=c1c(Cn2cncn2)cc2cc(Br)ccc2n1-c1ccccc1` [Formula 54, 6-bromo-1-phenyl-3-(1H-1,2,4-triazol-1-ylmethyl)-2(1H)-quinolone], for which the inhibition in vivo at 25 mg/kg in test [2] (setting [6]) and in test [2] (setting [7]) was under 10% each time.

With `O=c1c(Cn2cncn2)cc2ccccc2n1-c1ccc(Cl)cc1` [Formula 53], the inhibition at 30 µM in test [1] was 76%. Further, the “G.P. Bronchospasm % l” value in test [5] worked out at 18%. Moreover, the inhibition in vivo at 25 mg/kg is under 10% in test [2] (setting [6]) and 18% in test [2] (setting [7]).

For the molecule `O=c1c(Cn2cncn2)cc2ccccc2n1Cc1ccccc1` [Formula 52], the inhibition in vivo at 25 mg/kg amounted to 44% in test [2] (setting [6]) and 46% in test [2] (setting [7]).

Consider `O=c1c(Cn2cncn2)cc2ccc(Cl)cc2n1-c1ccccc1` [Formula 55, 1-phenyl-7-chloro-3-(1H-1,2,4-triazol-1-ylmethyl)-2(1H)-quinolone], for which the inhibition in vivo at 25 mg/kg in test [2] (setting [6]) and in test [2] (setting [7]) was under 10% throughout.

Regarding `CC(=O)N1CCN(Cc2cc3ccccc3n(-c3ccccc3)c2=O)CC1` [Formula 59], the inhibition in vivo at 25 mg/kg in test [2] (setting [6]) and in test [2] (setting [7]) was 68% in each case.

In the case of `O=c1c(Cn2cnnn2)cc2ccccc2n1-c1ccccc1` [Formula 3], in test [1], the inhibition at 30 µM was 83%. In addition, the values for the inhibition in vivo at 10 mg/kg in test [2] (setting [6]) and in test [2] (setting [7]) were 75% and 50%, respectively.
